In patent US10323038B2, “Pyrazole compounds and methods of making and using same” (ABIDE THERAPEUTICS, INC., priority 2015, dated 2019):

What was measured:
MAGL = MAGL (Mus musculus (Mouse), UniProt O35678); test: In vitro competitive activity-based protein profiling, MAGL (mouse); format: biochemical; conditions: for inhibition at 1 µM: read-out: MAGL % inh. 1 μM (mouse)
In short: (§1)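 Mouse brain membrane fraction or cell lysates (mouse assays) and human prefrontal cortex or cell membrane fractions (human assays), 1.0 mg/mL protein, were preincubated with varying inhibitor concentrations for 30 min at 37° C. FP-Rh or HT-01 probe (50 μM stock in DMSO) was then added for another 30 min at 37° C.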

FAAH = FAAH (Mus musculus (Mouse), UniProt O08914); test: In vitro competitive activity-based protein profiling, FAAH (mouse); format: biochemical; conditions: for inhibition at 1 µM: read-out: FAAH % inh. 1 μM (mouse)
Sequence of FAAH (O08914 whole entry): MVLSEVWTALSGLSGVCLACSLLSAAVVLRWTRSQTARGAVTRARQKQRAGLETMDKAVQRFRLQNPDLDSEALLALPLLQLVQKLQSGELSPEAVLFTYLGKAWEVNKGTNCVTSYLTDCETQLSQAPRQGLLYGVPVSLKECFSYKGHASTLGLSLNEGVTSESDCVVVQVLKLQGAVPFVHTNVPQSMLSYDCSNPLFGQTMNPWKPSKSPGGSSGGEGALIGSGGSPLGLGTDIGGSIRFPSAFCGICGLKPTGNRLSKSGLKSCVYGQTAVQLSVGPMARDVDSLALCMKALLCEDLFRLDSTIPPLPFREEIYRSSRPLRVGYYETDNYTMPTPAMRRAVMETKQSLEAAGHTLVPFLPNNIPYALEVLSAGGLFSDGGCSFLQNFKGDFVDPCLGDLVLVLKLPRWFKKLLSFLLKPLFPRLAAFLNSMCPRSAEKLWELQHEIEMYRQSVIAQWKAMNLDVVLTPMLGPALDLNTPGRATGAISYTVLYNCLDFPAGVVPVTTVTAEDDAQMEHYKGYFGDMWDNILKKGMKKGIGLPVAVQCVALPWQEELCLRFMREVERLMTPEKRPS
In short: as §1

Sequence of MAGL (O35678 whole entry): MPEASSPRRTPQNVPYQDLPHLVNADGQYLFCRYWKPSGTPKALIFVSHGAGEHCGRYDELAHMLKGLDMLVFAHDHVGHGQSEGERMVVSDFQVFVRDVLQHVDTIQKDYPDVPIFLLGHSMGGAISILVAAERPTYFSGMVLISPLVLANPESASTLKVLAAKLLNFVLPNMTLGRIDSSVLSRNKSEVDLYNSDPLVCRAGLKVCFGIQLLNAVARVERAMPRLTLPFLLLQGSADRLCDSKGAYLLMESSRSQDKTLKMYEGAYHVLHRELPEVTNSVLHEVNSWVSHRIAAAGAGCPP

| Structure (SMILES) | inhibition at 1 µM (MAGL) [%] | inhibition at 1 µM (FAAH) [%] | IC50 (MAGL) [nM] | IC50 (FAAH) [nM] |
| --- | --- | --- | --- | --- |
| CC(=O)N(C)c1cnn(C(=O)N2C[C@H]3C[C@H](N(C)Cc4ccc(N5CCCC5)c(C(F)(F)F)c4)C[C@H]3C2)c1 [Example 159, N-methyl-N-(1-(trans-5-(methyl(4-(pyrrolidin-1-yl)-3-(trifluoromethyl)benzyl)amino)octahydrocyclopenta[c]pyrrole-2-carbonyl)-1H-pyrazol-4-yl)acetamide] | ≥ 75 | ≥ 75 | – | – |
| CC(=O)N(C)c1cnn(C(=O)N2C[C@H]3C[C@@H](N(C)Cc4cc(C(F)(F)F)ccc4N4CCCC4)C[C@H]3C2)c1 [Example 168, N-methyl-N-(1-(cis-5-(methyl(2-(pyrrolidin-1-yl)-5-(trifluoromethyl)benzyl)amino)octahydrocyclopenta[c]pyrrole-2-carbonyl)-1H-pyrazol-4-yl)acetamide] | ≥ 75 | 50 to 75 | – | – |
| CC(=O)N(C)c1cnn(C(=O)N2CC3CN(Cc4cc(N5CCCC5)ccc4C(F)(F)F)CC3C2)c1 (stereo not drawn) [Example 127, N-methyl-N-(1-(5-(5-(pyrrolidin-1-yl)-2-(trifluoromethyl)benzyl)octahydropyrrolo[3,4-c]pyrrole-2-carbonyl)-1H-pyrazol-4-yl)acetamide] | ≥ 75 | ≥ 75 | – | – |
| CC(=O)N(C)c1cnn(C(=O)N2CC3CN(Cc4ccc(N5CCCC5)cc4)CC3C2)c1 (stereo not drawn) [Example 13, N-methyl-N-(1-(5-(4-(pyrrolidin-1-yl)benzyl)octahydropyrrolo[3,4-c]pyrrole-2-carbonyl)-1H-pyrazol-4-yl)acetamide] | ≥ 75 | ≥ 75 | 100 to 1000 | 100 to 1000 |
| CS(=O)(=O)Nc1cnn(C(=O)N2CCN(Cc3cc(N4CCCC4)cc(C(F)(F)F)c3)CC2)c1 [Example 295, N-(1-(4-(3-(pyrrolidin-1-yl)-5-(trifluoromethyl)benzyl)piperazine-1-carbonyl)-1H-pyrazol-4-yl)methanesulfonamide] | ≥ 75 | ≥ 75 | – | – |
| CC(=O)N(C)c1cnn(C(=O)N2CC3CN(Cc4ccc(Oc5ccnnc5)cc4Cl)CC3C2)c1 (stereo not drawn) [Example 257, N-(1-(5-(2-chloro-4-(pyridazin-4-yloxy)benzyl)octahydropyrrolo[3,4-c]pyrrole-2-carbonyl)-1H-pyrazol-4-yl)-N-methylacetamide] | 50 to 75 | ≥ 75 | – | – |
| CC(=O)N(C)c1cnn(C(=O)N2CC3CN(Cc4cc(Cl)cc(OCc5ccccc5)c4)CC3C2)c1 (stereo not drawn) [Example 251, N-(1-(5-(3-(benzyloxy)-5-chlorobenzyl)octahydropyrrolo[3,4-c]pyrrole-2-carbonyl)-1H-pyrazol-4-yl)-N-methylacetamide] | ≥ 75 | ≥ 75 | ≤ 100 | ≤ 100 |
| CC(=O)N(C)c1cnn(C(=O)N2C[C@H]3C[C@@H](N(C)Cc4cc(Cl)ccc4C(F)(F)F)C[C@H]3C2)c1 [Example 161, N-(1-(cis-5-((5-chloro-2-(trifluoromethyl)benzyl)(methyl)amino)octahydrocyclopenta[c]pyrrole-2-carbonyl)-1H-pyrazol-4-yl)-N-methylacetamide] | ≥ 75 | ≥ 75 | ≤ 100 | ≤ 100 |
| CS(=O)(=O)Nc1cnn(C(=O)N2CCN(Cc3ccc(-c4ccncn4)cc3C(F)(F)F)CC2)c1 [Example 309, N-(1-(4-(4-(pyrimidin-4-yl)-2-(trifluoromethyl)benzyl)piperazine-1-carbonyl)-1H-pyrazol-4-yl)methanesulfonamide] | 25 to 50 | ≥ 75 | – | – |
| CC(=O)N(C)c1cnn(C(=O)N2C[C@H]3C[C@H](N(C)Cc4cc(C(F)(F)F)ccc4Cl)C[C@H]3C2)c1 [Example 166, N-(1-(trans-5-((2-chloro-5-(trifluoromethyl)benzyl)(methyl)amino)octahydrocyclopenta[c]pyrrole-2-carbonyl)-1H-pyrazol-4-yl)-N-methylacetamide] | ≥ 75 | ≥ 75 | – | – |
| CC(=O)N(C)c1cnn(C(=O)N2C[C@H]3C[C@@H](NCc4ccccc4Cl)C[C@H]3C2)c1 [Example 133, N-(1-(cis-5-(2-chlorobenzylamino)octahydrocyclopenta[c]pyrrole-2-carbonyl)-1H-pyrazol-4-yl)-N-methylacetamide] | 25 to 50 | ≥ 75 | – | – |
| CC(=O)N(C)c1cnn(C(=O)N2CC3CN(Cc4cc(F)c(F)cc4F)CC3C2)c1 (stereo not drawn) [Example 246, N-methyl-N-(1-(5-(2,4,5-trifluorobenzyl)octahydropyrrolo[3,4-c]pyrrole-2-carbonyl)-1H-pyrazol-4-yl)acetamide] | ≥ 75 | ≥ 75 | 100 to 1000 | ≤ 100 |
| CC(=O)N(C)c1cnn(C(=O)N2CCN(Cc3ccc(Cl)cc3)CC2)c1 [Example 194, N-(1-(4-(4-chlorobenzyl)piperazine-1-carbonyl)-1H-pyrazol-4-yl)-N-methylacetamide] | ≥ 75 | ≥ 75 | 100 to 1000 | 1000 to 10000 |
| CC(=O)N(C)c1cnn(C(=O)N2CC3CN(Cc4ccc(F)cc4)CC3C2)c1 (stereo not drawn) [Example 178, N-(1-(5-(4-fluorobenzyl)octahydropyrrolo[3,4-c]pyrrole-2-carbonyl)-1H-pyrazol-4-yl)-N-methylacetamide] | 25 to 50 | ≥ 75 | 1000 to 10000 | 100 to 1000 |
| CC(=O)N(C)c1cnn(C(=O)N2C[C@H]3C[C@H](NCc4ccccc4Cl)C[C@H]3C2)c1 [Example 136, N-(1-(trans-5-(2-chlorobenzylamino)octahydrocyclopenta[c]pyrrole-2-carbonyl)-1H-pyrazol-4-yl)-N-methylacetamide] | ≥ 75 | ≥ 75 | 100 to 1000 | 100 to 1000 |
| CC(=O)N(C)c1cnn(C(=O)N2CCN(Cc3ccc(Cl)c(Cl)c3)CC2)c1 [Example 196, N-(1-(4-(3,4-dichlorobenzyl)piperazine-1-carbonyl)-1H-pyrazol-4-yl)-N-methylacetamide] | ≥ 75 | ≥ 75 | – | 100 to 1000 |
| CC(=O)N(C)c1cnn(C(=O)N2CC3CN(Cc4cc(Cl)ccc4Cl)CC3C2)c1 (stereo not drawn) [Example 109, N-(1-(5-(2,5-dichlorobenzyl)octahydropyrrolo[3,4-c]pyrrole-2-carbonyl)-1H-pyrazol-4-yl)-N-methylacetamide] | ≥ 75 | ≥ 75 | ≤ 100 | ≤ 100 |

More lines, now with the values ahead:

| inhibition at 1 µM (MAGL) [%] | inhibition at 1 µM (FAAH) [%] | IC50 (MAGL) [nM] | IC50 (FAAH) [nM] | Structure (SMILES) |
| --- | --- | --- | --- | --- |
| ≥ 75 | ≥ 75 | – | – | CC(=O)N(C)c1cnn(C(=O)N2CCC3(CCN(Cc4ccc(-c5cnccn5)cc4Cl)C3)C2)c1 (stereo not drawn) [Example 264, N-(1-(7-(2-chloro-4-(pyrazin-2-yl)benzyl)-2,7-diazaspiro[4.4]nonane-2-carbonyl)-1H-pyrazol-4-yl)-N-methylacetamide] |
| ≥ 75 | 50 to 75 | – | – | CC(=O)N(C)c1cnn(C(=O)N2CCC3(CC2)CN(Cc2ccc(N4CCCC4)cc2)C3)c1 [Example 25, N-methyl-N-(1-(2-(4-(pyrrolidin-1-yl)benzyl)-2,7-diazaspiro[3.5]nonane-7-carbonyl)-1H-pyrazol-4-yl)acetamide] |
| 25 to 50 | 50 to 75 | – | – | CC(=O)N(C)c1cnn(C(=O)N2CC3(CCN(Cc4ccc(C(F)(F)F)cc4)CC3)C2)c1 [Example 20, N-methyl-N-(1-(7-(4-(trifluoromethyl)benzyl)-2,7-diazaspiro[3.5]nonane-2-carbonyl)-1H-pyrazol-4-yl)acetamide] |
| ≥ 75 | ≥ 75 | – | – | CC(=O)N(C)c1cnn(C(=O)N2CCC3(CCN(Cc4ccc(-c5cccnn5)cc4Cl)C3)C2)c1 (stereo not drawn) [Example 263, N-(1-(7-(2-chloro-4-(pyridazin-3-yl)benzyl)-2,7-diazaspiro[4.4]nonane-2-carbonyl)-1H-pyrazol-4-yl)-N-methylacetamide] |
| ≥ 75 | ≥ 75 | 100 to 1000 | ≤ 100 | CC(=O)N(C)c1cnn(C(=O)N2CCC3(CCN(Cc4cccc(C(F)(F)F)c4)C3)C2)c1 (single isomer, unassigned) [Example 65, N-methyl-N-(1-(7-(3-(trifluoromethyl)benzyl)-2,7-diazaspiro[4.4]nonane-2-carbonyl)-1H-pyrazol-4-yl)acetamide] |
| 50 to 75 | ≥ 75 | – | – | CC(=O)N(C)c1cnn(C(=O)N2CC3(CCN(Cc4cccc(Cl)c4)CC3)C2)c1 [Example 85, N-(1-(7-(3-chlorobenzyl)-2,7-diazaspiro[3.5]nonane-2-carbonyl)-1H-pyrazol-4-yl)-N-methylacetamide] |
| ≥ 75 | ≥ 75 | ≤ 100 | ≤ 100 | CC(=O)N(C)c1cnn(C(=O)N2CCC3(CC2)CN(Cc2cccc(Oc4ccccc4)c2)C3)c1 [Example 235, N-methyl-N-(1-(2-(3-phenoxybenzyl)-2,7-diazaspiro[3.5]nonane-7-carbonyl)-1H-pyrazol-4-yl)acetamide] |
| ≥ 75 | ≥ 75 | 100 to 1000 | ≤ 100 | CC(=O)N(C)c1cnn(C(=O)N2CCC3(CCN(Cc4ccc(-c5ccncn5)cc4Cl)C3)C2)c1 (stereo not drawn) [Example 273, N-(1-(7-(2-chloro-4-(pyrimidin-4-yl)benzyl)-2,7-diazaspiro[4.4]nonane-2-carbonyl)-1H-pyrazol-4-yl)-N-methylacetamide] |
| 50 to 75 | 25 to 50 | – | – | CC(=O)N(C)c1cnn(C(=O)N2CC3(CCN(Cc4ccc(C)cc4)CC3)C2)c1 [Example 87, N-methyl-N-(1-(7-(4-methylbenzyl)-2,7-diazaspiro[3.5]nonane-2-carbonyl)-1H-pyrazol-4-yl)acetamide] |
